This is an account of results in ChEMBL document CHEMBL6177982, “Structural Optimization of Pyrazole Compounds as Hsp90 Regulators with Enhanced Antitumor Activity” (J Med Chem, 2025).

One may read the IC50 as the concentration that inhibits the measured activity by half. Usually inhibition stands for the change of the read-out against control, counted positive when it falls.

Assay [1] concerns HCT-116. In words: Antiproliferative activity against CDC37 knockout human HCT-116 cells assessed as inhibition of cell proliferation incubated for 72 hrs by MTT assay. In kind it is functional, cell-based. The conditions noted are these: for IC50: HCT-116, 72 h. A general note: Tetrazolium dyes change colour on reduction, which living cells bring about.
For assay [2], the target named is Heat shock protein HSP 90-beta/Hsp90 co-chaperone Cdc37 (Homo sapiens) (UniProt P08238+Q16543). Description: Inhibition of His-tagged HSP90(unknown origin)/GST-tagged CDC37 (unknown origin) protein-protein interaction at 100 uM preincubated with HSP90 for 1 hrs followed by CDC37 addition and measured after 1 hrs by HTRF assay relative to control. It counts as protein-complex assay.

A short description of assay [3]: Selectivity ratio of IC50 for antiproliferative activity against CDC37 knockout human HCT-116 cells to IC50 for antiproliferative activity against human HCT-116 cells. It counts as functional.
Assay [4] has as its system HCT-116. Description: Antiproliferative activity against human HCT-116 cells assessed as inhibition of cell proliferation incubated for 72 hrs by MTT assay. In kind it is functional, cell-based. The note with it: HCT-116, 72 h.

Activity calls are given as the source filed them. The calls are words filed in the database; no cut-off is given here. Where only a bound is given, the exact number is not on record here.

Consider `NC(=O)C1CCCCN1C(=O)/C=C/c1cn(-c2ccccc2)nc1Cc1ccccc1` (configuration not stated), for which the IC50 in assay [1] turned out to be 42.2 µM; in assay [4], 18.2 µM. Moreover, the inhibition in assay [2] is 38.9%. In addition, the “Ratio IC50” value in assay [3] is 2.3.

Consider `Cc1ccccc1-c1nn(-c2ccccc2)cc1/C=C/C(=O)N1CCCCC1C(N)=O` (configuration not stated), for which the values for the IC50 in assay [1] and in assay [4] were 27.5 µM and 10.2 µM, respectively. In assay [2], this compound came in with an inhibition of 45.4%. Further, in assay [3], the “Ratio IC50” value came out at 2.7.

`CCOC(=O)c1cccc(-c2nn(-c3ccccc3)cc2/C=C/C(=O)N2CCCCC2C(N)=O)c1` (configuration not stated): the 50% inhibitory concentration (IC50) in assay [1] and in assay [4] was greater than 50 µM in each case. Besides, the inhibition in assay [2] was less than 20%.

`NC(=O)C1CCCCN1C(=O)/C=C/c1cn(-c2ccccc2)nc1-c1cccc(N)c1` (configuration not stated): the IC50 is greater than 50 µM in assay [1] and 9.11 µM in assay [4]. Further, in assay [2], the inhibition stood at 68.3%. In assay [3], the “Ratio IC50” value is greater than 5.

`NC(=O)C1CCCCN1C(=O)/C=C/c1cn(-c2ccccc2)nc1-c1cccs1` (configuration not stated): the IC50 in assay [1] is greater than 50 µM; in assay [4] it was 8.46 µM. For the same compound, the inhibition in assay [2] was found to be 59%. Besides, in assay [3], the “Ratio IC50” value is listed as greater than 5.

In the case of `COc1cc(-c2nn(-c3ccccc3)cc2/C=C/C(=O)N2CCCCC2C(N)=O)ccc1Cl` (configuration not stated), the IC50 in assay [1] is greater than 50 µM; in assay [4], 11 µM. Besides, the inhibition in assay [2] was found to be 43.3%. Besides, the “Ratio IC50” value in assay [3] is less than 5.

Regarding `COc1ncccc1-c1nn(-c2ccccc2)cc1/C=C/C(=O)N1CCCCC1C(N)=O` (configuration not stated), the concentration for half-maximal inhibition (IC50) in assay [1] is greater than 50 µM; in assay [4], 12.5 µM. The compound further registered an inhibition in assay [2] of 45.7%. The “Ratio IC50” value in assay [3] was less than 5.

For the compound `NC(=O)C1CCCCN1C(=O)/C=C/c1cn(-c2ccccc2)nc1-c1ccccn1` (configuration not stated), the IC50 was greater than 100 µM in assay [1] and 7.11 µM in assay [4]. The compound further returned an inhibition in assay [2] of 69.5%. For the same compound, the “Ratio IC50” value in assay [3] is listed as greater than 10.

On to `NC(=O)C1CCCCN1C(=O)/C=C/c1cn(-c2ccccc2)nc1-c1cncc(Br)c1` (configuration not stated), for which the IC50 was greater than 100 µM in assay [1] and 9.18 µM in assay [4]. The same compound gave an inhibition in assay [2] of 72.5%. Besides, the “Ratio IC50” value in assay [3] is greater than 10.

For `NC(=O)C1CCCCN1C(=O)/C=C/c1cn(-c2ccccc2)nc1-c1cccnc1` (configuration not stated), the figures for the IC50 in assay [1] and in assay [4] were greater than 100 µM and 6.12 µM, respectively. This compound had an inhibition in assay [2] of 74.4%. Also, the “Ratio IC50” value in assay [3] is on record as greater than 10.

As for `O=C(/C=C/c1cn(-c2ccccc2)nc1-c1cccnc1)N1CCCCCC1`, the outcome in assay [1] was inactive. The compound further returned an inhibition in assay [2] of 72.5%. The “Ratio IC50” value in assay [3] is greater than 20. Moreover, in assay [4], the IC50 turned out to be 7.17 µM.

`COc1cccc(-c2nn(-c3ccccc3)cc2/C=C/C(=O)N2CCCCC2C(N)=O)c1` (configuration not stated): the half-inhibitory concentration (IC50) in assay [1] is greater than 50 µM; in assay [4] it was 10.3 µM. The compound further returned an inhibition in assay [2] of 67.8%. Also, the “Ratio IC50” value in assay [3] is greater than 5.

On to `Cc1cccc(S(=O)(=O)/C=C/c2cn(-c3ccccc3)nc2-c2cccnc2)c1`, for which the IC50 in assay [1] was greater than 50 µM; in assay [4], 4.23 µM. The inhibition in assay [2] is 83.2%. In addition, in assay [3], the “Ratio IC50” value is greater than 10.

Turning to `Cc1ccccc1S(=O)(=O)/C=C/c1cn(-c2ccccc2)nc1-c1cccnc1`, the concentration for half-maximal inhibition (IC50) is greater than 50 µM in assay [1] and 2.55 µM in assay [4]. The inhibition in assay [2] was found to be 87.6%. Also, the “Ratio IC50” value in assay [3] is greater than 25.

For `CCCN(C)C(=O)/C=C/c1cn(-c2ccccc2)nc1-c1cccnc1`, the half-maximal inhibitory concentration (IC50) in assay [1] was 48.1 µM; in assay [4], 9.26 µM. The inhibition in assay [2] was 59.8%. In addition, the “Ratio IC50” value in assay [3] is recorded as 5.2.

Take `NC(=O)C1CCCCN1C(=O)/C=C/c1cn(-c2ccccc2)nc1-c1cccc(Cl)c1` (configuration not stated): the values for the IC50 in assay [1] and in assay [4] were 28.2 µM and 9.17 µM, respectively. Besides, in assay [2], the inhibition turned out to be 48.3%. Moreover, the “Ratio IC50” value in assay [3] was 3.1.

For `NC(=O)C1CCCCN1C(=O)/C=C/c1cn(-c2ccccc2)nc1-c1ccc2ccccc2c1` (configuration not stated), the half-maximal inhibitory concentration (IC50) in assay [1] and in assay [4] was greater than 50 µM in each case. In assay [2], this compound returned an inhibition of less than 20%.

Turning to `NC(=O)C1CCCCN1C(=O)/C=C/c1cn(-c2ccccc2)nc1-c1cncc(C(F)(F)F)c1` (configuration not stated), the IC50 in assay [1] and in assay [4] was greater than 50 µM in each case. In assay [2], this compound returned an inhibition of less than 20%.

For `CCN(CC)C(=O)/C=C/c1cn(-c2ccccc2)nc1-c1cccnc1`, the half-maximal inhibitory concentration (IC50) was determined as 49.9 µM in assay [1] and 10.3 µM in assay [4]. For the same compound, the inhibition in assay [2] turned out to be 60.2%. Besides, the “Ratio IC50” value in assay [3] turned out to be 4.8.

Consider `Cc1cc(-c2nn(-c3ccccc3)cc2/C=C/C(=O)N2CCCCC2C(N)=O)ccc1Cl` (configuration not stated), for which the IC50 in assay [1] amounted to 42.7 µM; in assay [4] it was 10.6 µM. The compound further displayed an inhibition in assay [2] of 46.9%. In assay [3], the “Ratio IC50” value amounted to 4.

As for `O=S(=O)(/C=C/c1cn(-c2ccccc2)nc1-c1cccnc1)c1ccc(Cl)cc1`, the half-maximal inhibitory concentration (IC50) in assay [1] was greater than 50 µM; in assay [4], 1.28 µM. In addition, the inhibition in assay [2] worked out at 89.2%. The “Ratio IC50” value in assay [3] is recorded as greater than 50.

Consider `O=C(/C=C/c1cn(-c2ccccc2)nc1-c1cccnc1)N1CCCC1`, for which the IC50 in assay [1] was greater than 50 µM; in assay [4] it was 8.48 µM. For the same compound, the inhibition in assay [2] is 65.9%. Moreover, the “Ratio IC50” value in assay [3] is greater than 5.

Regarding `Cc1ccc(S(=O)(=O)/C=C/c2cn(-c3ccccc3)nc2-c2cccnc2)cc1`, the IC50 in assay [1] was greater than 50 µM; in assay [4], 4.77 µM. In assay [2], this compound displayed an inhibition of 85.8%. Besides, in assay [3], the “Ratio IC50” value is recorded as greater than 10.

Consider `NC(=O)C1CCCCN1C(=O)/C=C/c1cn(-c2ccccc2)nc1-c1ccc(Cl)cc1` (configuration not stated), for which the IC50 in assay [1] was found to be 32.3 µM; in assay [4] it was 11.8 µM. In addition, the inhibition in assay [2] amounted to 45.4%. Besides, in assay [3], the “Ratio IC50” value is on record as 2.7.

On to `NC(=O)C1CCCCN1C(=O)/C=C/c1cn(-c2ccccc2)nc1-c1cccc(F)c1` (configuration not stated), for which the results for the 50% inhibitory concentration (IC50) in assay [1] and in assay [4] were 42.2 µM and 14.2 µM, respectively. Besides, the inhibition in assay [2] was 45.6%. For the same compound, the “Ratio IC50” value in assay [3] is on record as 3.

On to `NC(=O)C1CCCCN1C(=O)/C=C/c1cn(-c2ccccc2)nc1-c1cccc(C(=O)O)c1` (configuration not stated), for which the IC50 in assay [1] and in assay [4] was greater than 50 µM each time. The same compound displayed an inhibition in assay [2] of less than 20%.

Consider `COc1cc(-c2nn(-c3ccccc3)cc2/C=C/C(=O)N2CCCCC2C(N)=O)ccc1Br` (configuration not stated), for which the half-maximal inhibitory concentration (IC50) in assay [1] was determined as 44.7 µM; in assay [4], 10.1 µM. The compound also returned an inhibition in assay [2] of 49.2%. Moreover, the “Ratio IC50” value in assay [3] turned out to be 4.4.

Regarding `NC(=O)C1CCCCN1C(=O)/C=C/c1cn(-c2ccccc2)nc1-c1cccc([N+](=O)[O-])c1` (configuration not stated), the IC50 in assay [1] and in assay [4] was greater than 50 µM in each case. The compound further returned an inhibition in assay [2] of less than 20%.

Take `COc1cncc(-c2nn(-c3ccccc3)cc2/C=C/C(=O)N2CCCCC2C(N)=O)c1` (configuration not stated): the IC50 was greater than 100 µM in assay [1] and 8.98 µM in assay [4]. The compound further returned an inhibition in assay [2] of 70.9%. Also, in assay [3], the “Ratio IC50” value is greater than 10.

For the compound `NC(=O)C1CCCCN1C(=O)/C=C/c1cn(-c2ccccc2)nc1-c1cccnc1Br` (configuration not stated), the IC50 in assay [1] is greater than 50 µM; in assay [4], 11.8 µM. The same compound showed an inhibition in assay [2] of 42.9%. In assay [3], the “Ratio IC50” value is less than 5.

In the case of `N#Cc1cccc(-c2nn(-c3ccccc3)cc2/C=C/C(=O)N2CCCCC2C(N)=O)c1` (configuration not stated), the IC50 in assay [1] and in assay [4] was greater than 50 µM each time. The same compound showed an inhibition in assay [2] of less than 20%.

`Cc1ccc(-c2nn(-c3ccccc3)cc2/C=C/C(=O)N2CCCCC2C(N)=O)cc1` (configuration not stated): the figures for the half-maximal inhibitory concentration (IC50) in assay [1] and in assay [4] were 30.8 µM and 10.9 µM, respectively. In assay [2], this compound had an inhibition of 44.7%. Also, the “Ratio IC50” value in assay [3] turned out to be 2.8.
